Reference: patent US6750234B2, “Methods for increasing leptin levels using nicotinic acid compounds” (University of Kentucky Research Foundation, priority 2001, dated 2004)
Where two headings read alike, the source gives them in different places.

What was measured:
Human adipocytes = conditions: 0.1 mM niacin, 24 hours, vs cultures without niacin
Procedure: Human adipocytes were obtained in accordance with standard methods. In brief, preadipocytes were collected from subcutaneous adipose tissue, following collagenase treatment. The preadipocytes were plated, and allowed to differentiate for 3 weeks, to form adipocytes.
The adipocytes were then incubated, in 0.6 ml of DMEM/F-10 medium, to which 2% bovine serum albumin was added.
After 24 hours, the culture medium was analyzed for leptin, using a commercially available ELISA kit.

leptin [1] = conditions: female apoB/CETP mice
Procedure: Leptin levels in plasma were determined using a commercially available murine leptin radioimmunoassay. The RIA was carried out on fasting (16 h) blood samples obtained from the retroorbital plexus. The blood samples were collected and centrifuged at 2000×g for 15 minutes to secure plasma.

leptin [2] = conditions: transgenic mice; cited from earlier work
leptin [3] = conditions: male BALB/C mice, 4 ml/kg/mouse, vs vehicle
Procedure: The experiments described in example 2 were continued, in the experiment described in this example. Specifically, male BALB/C mice were shaved, from the scapulae to tail bases. The subject animals then received topical application of the lauryl nicotinate ester lotion, described in example 2, supra, or myristyl nicotinate ester lotion, in varying concentrations. Controls received vehicle only. The lotion was applied at a dose of 4 ml/kg/mouse.
Serum leptin levels were measured, as described, supra.

full thickness wounds = conditions: mice, about 6 mm full thickness wounds, topical 20% lotion, 100 μl twice every day for 14 days, vs lotion without ester
Procedure: Mice were inflicted with full thickness wounds of about 6 mm in diameter, under anesthesia (sodium phenobarbital). They then received topical application of a 20% nicotinate ester lotion, every day, for 14 days. The dosing was 100 μl for each application, with two applications every day. As a control, the lotion without the ester was used. Wound diameter was measured every day.

O=C(O)c1cccnc1 [niacin, reference compound]
increase in leptin production (Human adipocytes): 62%
amount of circulating leptin (plasma) (leptin [1]; oral, sodium salt 0.75% in drinking water, approx. 1400 mg/kg, fasting (16 h) blood): did increase the amount of circulating leptin

Cc1cnc(C(=O)O)c[n+]1[O-] [Acipimox]
plasma leptin levels (leptin [2]): increase plasma leptin levels

CCCCCCCCCCCCCCOC(=O)c1cccnc1 [myristyl nicotinate ester]
increase in serum leptin levels (leptin [3]; topical 2% formulation): 57%
increase in serum leptin levels (leptin [3]; topical 5% formulation): 77%

CCCCCCCCCCCCOC(=O)c1cccnc1 [lauryl nicotinate ester]
increase in serum leptin levels (leptin [3]; topical 10% lotion): 45%
reduction of wound thickness (full thickness wounds): 43%
amount of circulating leptin (plasma) (leptin [1]; topical, 200 mg of 10% (wt/wt) lotion daily for 13 weeks, compared with oral niacin): surpassed it in terms of the amount of circulating leptin
